This note sets out measurements from patent US20070179147A1, “Methods of treating and preventing Alzheimer's disease” (priority 2006, published 2007).

Several values for one entry are separate records, joined by “and”; a condition that tells them apart may be missing. Equal entries are not always repeated. Entries after “also recorded” stand apart in the source; their conditions may differ. Where two headings read alike, the source gives them in different places.

Data set [1] concerns enriched neuronal cultures (cerebellar tissue). Briefly: Neurotoxicity of PAN-811, 24 h treatment (MTT assay). As to conditions: highest concentration tested (100 μM).
Description: Enriched neuronal cultures were prepared from 15-day-old Sprague-Dawley rat embryos. Using aseptic techniques, the rat embryos were removed from the uterus and placed in sterile neuronal culture medium. Using a dissecting microscope, the brain tissue was removed from each embryo, with care taken to discard the meninges and blood vessels. The cerebellum was separated by gross dissection under the microscope, and only cerebellar tissue was used for the culture. Cells were dissociated by trituration of the tissue and were plated at a density of 5×10^5 cells/well onto 48-well culture plates precoated with poly(L-lysine). […]
Cells were treated with varying amounts of PAN-811 (0-100 μM) for 24 hrs. Cell viability was determined in the MTT assay.
Cell damage was quantitatively assessed using a tetrazolium salt colorimetric assay with 3-(4,5-dimethylthiazol-2-yl)-2,5-diphenyltetrazolium (MTT; Sigma Chemical Co., St. Louis, Mo.). Briefly, the dye was added to each well (final concentration, 1.5 mg/ml), cells were incubated with MTT-acidified isopropanol (0.1 N HCl in isopropanol), and the absorbance intensity (540 nm) of each sample was measured in a 96-well plate reader. Values are expressed relative to vehicle-treated control cells that were maintained on each plate, and the percentage change in cell viability was calculated.
Data set [2] concerns male Sprague-Dawley rats, middle cerebral artery occlusion.
Data set [3] relates to primary cortical neurons. Briefly: Neuroprotection against H2O2-induced oxidative stress (MTS assay), comparison with known neuroprotectants. It is filed as cell-based, rat. As to conditions: 24 h pre-treatment, harsh H2O2 treatment (150 μM). The protocol: Twice, half the amount of medium was replaced with fresh neurobasal medium containing no antioxidants. […] The other known neuroprotectants were dissolved in appropriate solvents and diluted to the final concentrations as indicated. […] Each assay was performed in triplicate. After 24 hours, the cultures were evaluated for viability and mitochondrial function using a standard MTS Assay (Promega). The manufacturer's protocols were followed. Experiments were carried out in accordance with the above study design. […] Ginkgo biloba was dissolved in dH2O at a concentration of 6 mg/ml, and further diluted in the neurobasal medium to final concentrations of 2.5 μ/ml, 5 μg/ml, 25 μg/ml, and 250 μg/ml. […] The plates were returned to the incubator at 37° C. with 5% CO2 for one hour. Subsequently, 20 μl MTS reagent was added to each well and the plates were incubated at 37° C. with 5% CO2 for an additional two hours. The absorbance at 490 nm for each well was recorded with the BioRad plate reader (Model 550). Wells containing medium alone were used as blanks. Each data point is the average of three separate assay wells. […] Two-week-old primary cultures were used for this set of study.
(In general: Formazan colour is commonly taken as a measure of viable cells.)

Data set [4] has as its system co-cultured cortical and striatal neurons. The data set can be described thus: Protection from Aβ1-42 or Aβ25-35 induced neurotoxicity (morphology, LDH, MTS).
Description: Experiments were performed in a 96-well plate format. Cortical neurons were seeded at a density of 50,000 cells/well on poly-D-lysine coated surface, and cultured in serum-free medium (NB plus B27 supplement containing AO or without AO) to obtain cultures high enriched for neurons. Neurons were cultured for over 14 d.i.v. to increase cell susceptibility to excitatory amino acids (Jiang et al., 2001, supra). Three to six replicate wells were treated as a group to facilitate assay quantitation.
Lyophilized Aβs were dissolved in de-ionized and distilled water to a final concentration of 400 μM, and aliquoted and stored at −20° C. Before use, an aliquot of Aβ was removed from freezer and incubated at 37° C. for 48 hours. Neurons were cultured in NB with B27 supplement containing AO or without AO under 5% CO2 and 95% ambient air, 37° C. At 2 or 3 weeks, the neurons were treated with pre-incubated Aβ and either non-incubated Aβ or Aβ35-25 served as experimental controls.
Treatment with 2μM PAN-811 or 1:12,500 PEG:EtOH (7:3 as vehicle control) was started by at most 3 hours following Aβ insult. The neurons remained in culture post-treatment for different time periods, from 1 to 16 days.
Neuronal cell death was morphologically evaluated.
The MTS assay is a colorimetric assay that measures the mitochondrial function in metabolically active cells. This measurement indirectly reflects cell viability. […] 10 μl of MTS reagent (Promega) are added to each well of the 96 well assay plates containing the samples in 50 μl of culture medium. The plate is then incubated in a humidified, 5% CO2 atmosphere at 37° C. for 1 hour until the color is fully developed. The absorbance at 490 nm was recorded using a Bio-Rad 96 well plate reader.
Lactate dehydrogenase (LDH) assay is based on the reduction of NAD by the action of LDH. The resulting reduced NAD (NADH) is utilized in the stoichiometric conversion of a tetrazolium dye. If cell-free aliquots of medium from cultures given different treatments are assayed, then the amount of LDH activity can be used as an indicator of relative cell death as well as a function of membrane integrity. A 35μl aliquot of culture medium from a well in a 96-well test plate is transferred into a well in unused plate and supplemented with 17.5 μl of equally mixed Substrate, Enzyme and Dye Solutions (Sigma). The preparation is incubated at room temperature for 30 minutes, and then measured spectrophotometrically at a wavelength of 490 nm.
Primary neurons were isolated from cortex and striatum of 17-day-old rat embryonic brain and seeded on 96-well plates at 50,000 cells/well in regular neurobasal medium (Neurobasal Medium supplemented with B27-AO) for 2-3 weeks.
Lyophilized Aβ1-42 and Aβ25-35 were dissolved in distilled, deionized water to a final concentration of 400 uM. Aliquots of the preparations were stored at −20° C. The day before the experiment, the peptides were shifted from −20° C. to 37° C. and incubated overnight at 37° C.
The neurons at 12-16 d.i.v. and 21-23 d.i.v. were insulted by adding 2.5 ul per well of either 400 uM Aβ1-42 or 400 uM Aβ25-35 (final concentration: 10 uM). Untreated and Aβ35-25-treated wells were taken as negative controls and 25 uM glutamate treated wells were set as the positive control. At the same time as or 2-3 hours after the initiation of Aβ insults, 1:5000 diluted PEG:EtOH (vehicle for PAN-811) as well as PAN-811 at concentrations of 0.25, 05., 1 and 2 μM were added to the Aβ insulted wells. The neurons were continuously incubated at 37° C., 5% CO2. Data were obtained from the readings of 3-6 replicate wells.
Data set [5] concerns primary cortical neurons. Briefly: Protection of neurons from H2O2-induced oxidative stress (60-70 μM H2O2, MTS assay). It is filed as cell-based, rat. The following applies: 1-10 μM, 24 h pre-treatment, H2O2 60-70 μM. The protocol:
Twice, half amount of medium was replaced with fresh neurobasal medium containing no antioxidants. […] Each assay was performed in triplicate. […] After 24 hours, the cultures were evaluated for viability and mitochondrial function using a standard MTS Assay (Promega). The manufacturer's protocols were followed. […] The plates were put back into the incubator at 37° C. with 5% CO2 for one hour, then 20 μl MTS reagent was added to each well and plates were incubated at 37° C. with 5% CO2 for an additional two hours. The absorbance at 490 nm for each well was recorded with the BioRad plate reader (Model 550). Wells containing media alone were used as blanks. Each data point is the average of three separate assay wells. […] Three-week-old primary cultures were used for this set of study. Experiments were carried out following the same procedures as experiment 1. Two-week-old primary cultures were used for this study.

Data set [6] has as its system cortical neurons. As to conditions: for protection from neuronal cell death (morphology): 5 μM, hypoxia.
Description: Experiments were performed in a 96-well plate format. Cortical neurons were seeded at a density of 50,000 cells/well on a poly-D-lysine coated surface, and cultured in serum-free medium (NB plus B27 supplement) to obtain cultures highly enriched for neurons. Neurons were cultured for over 14 d.i.v. to increase cell susceptibility to excitatory amino acids (Jiang et al., 2001). Six replicate wells were treated as a group to facilitate assay quantitation.
Treatment with drug was continued during and subsequent to a 24-hour period of hypoxia. Cellular morphology and function (MTS and LDH assays) were measured 24 or 48 hours subsequent to the hypoxic insult.
The MTS assay is a colorimetric assay that measures the mitochondrial function in metabolically active cells. This measurement indirectly reflects cell viability. […] 20 μl of MTS reagent (Promega) are added to each well of the 96 well assay plates containing the samples in 100 μl of culture medium. The plate is then incubated in a humidified, 5% CO2 atmosphere at 37° C. for 1-2 hours until the color is fully developed. The absorbance at 490 nm was recorded using a Bio-Rad 96 well plate reader.
The lactate dehydrogenase (LDH) assay is based on the reduction of NAD by the action of LDH. The resulting reduced NAD (NADH) is utilized in the stoichiometric conversion of a tetrazolium dye. If cell-free aliquots of medium from cultures given different treatments are assayed, then the amount of LDH activity can be used as an indicator of relative cell death as well as a function of membrane integrity. A 50 μl aliquot of culture medium from a well in tested 96-well plate is transferred into a well in unused plate and supplemented with 25 μl of equally-mixed Substrate, Enzyme and Dye Solutions (Sigma). The preparation is incubated at room temperature for 20-30 minutes, and then measured spectrophotometrically at wavelength of 490 nm.
The subject of data set [7] is cortical neurons. Briefly: Extreme hypoxia/hypoglycemia (H/H) model, 0.4 mM glucose.
Description: (§1) Experiments were performed in a 96-well plate format. Cortical neurons were seeded at a density of 50,000 cells/well on a poly-D-lysine coated surface, and cultured in serum-free medium (NB plus B27 supplement) to obtain cultures highly enriched for neurons. […] Six replicate wells were treated as a group to facilitate assay quantitation.
(§2) The extreme H/H model (0.4 mM glucose) is a mimic of the environment in the central core of an infarct; the mild H/H model (1.63 mM glucose) is a mimic of the environment in the penumbra during MCAO; and the hypoxia only model (neurons in normal in vitro glucose concentration—25 mM) is a mimic of the environment in the penumbra after reperfusion since the possible cell death after reperfusion is predominantly a result of the hypoxic effect rather then energy failure.
Hypoxia/hypoglycemia was obtained by reducing glucose concentration down to 0.4 mM and 1.63 mM for extreme H/H and mild H/H, respectively. […] The level of O2 in the chamber was determined to be zero with an O2 indicator (FYRITE Gas Analyzer, Bacharach, Inc.). […] Mitochondrial function and cell death were evaluated at 24 or 48 hours post H/H insult with the MTS and LDH analyses (see below).
The MTS assay is a colorimetric assay that measures the mitochondrial function in metabolically active cells. […] The absorbance at 490 nm was recorded using a Bio-Rad 96 well plate reader. […]
Data set [8] in a line: Solubility of PAN-811 in solvents. As to conditions: PEG-300/EtOH vs EtOH.
The subject of data set [9] is primary cortical neurons. The data set can be described thus: ROS generation in neuronal cells (c-DCF fluorescence). The format is cell-based, rat. As to conditions: 10 μM. As for the experimental part:
Twice, half the amount of medium was replaced with fresh neurobasal medium without antioxidants. […] Untreated cells loaded with the dye were used as controls to calculate the c-DCF fluorescence change. Each assay was performed in triplicate. The c-DCF fluorescence at 485/520 nm (Ex/Em) for each well was recorded with the BMG Polar Star plate reader. Wells containing cells without dye were used as blanks. Each data point is the average of three separate assay wells. Untreated cells loaded with the dye were used as a control to calculate the c-DCF fluorescence change. Two-week-old primary cultures were used for the study. CM-H2DCFDA is a cell-permeant indicator for reactive oxygen species (ROS), which is non-fluorescent until the acetate groups are removed by intracellular esterases and oxidation occurs within the cell. It has been widely employed to detect the generation of ROS in cells and animals. Here, it has been used as a tool to assess the effects of PAN-811 on ROS generation in neuronal cells following the procedures described in this example. […] Experiments were repeated four times in different batches of cells and similar results were obtained. See FIG. 2 for the representative experiment.

The subject of data set [10] is cortical neurons. The following applies: for protection (Comments): 24 h pre-treatment, 6 h H/H, 24 h post, culture age 15 days, test range started from 5 μM.
Description: as §1, §2
Hypoxia/hypoglycemia was obtained by reducing glucose concentration down to 0.4 mM and 1.63 mM for extreme H/H and mild H/H, respectively. BSS (116.0 mM NaCl, 5.4 mM KCl, 0.8 mM MgSO4.e7H20, 1.0 mM NaH2PO4, 1.8 mM CaCl2.2H2O, 26.2 mM NaHCO3, and 0.01 mM glycine) or BSS with 25 mM glucose were de-gassed for 5 minutes prior to use. Culture medium in the plates for hypoxia was replaced with BSS or BSS with glucose. Meanwhile, culture medium in the plates for normoxia was replaced with non de-gassed BSS or BSS with glucose. Cells were committed to hypoxic conditions by transferring the plates into a sealed container (Modular Incubator Chamber-101™, Billups-Rothenberg, Inc.), applying a vacuum for 20 minutes to remove oxygen or other gases from the culture medium, and then refilling the chamber with 5% CO2 and 95% N2 at a pressure of 30 psi for 1 minute. The level of O2 in the chamber was determined to be zero with an O2 indicator (FYRITE Gas Analyzer, Bacharach, Inc.). Culture plates were maintained in the chamber for 6 hours. As an experimental control, duplicate culture plates were maintained under normal culture condition (5% CO2 and 95% ambient air) for the same duration. After a 6-hour treatment, plates were removed from the chamber and the medium in both the hypoxic and normoxic cultures was replaced with a termination solution (DMEM supplemented with 1×sodium pyruvate, 10.0 mM HEPES, and 1×N2 supplement) containing 25 mM glucose and cultured in 5% CO2 and 95% ambient air conditions. […] MK801 was utilized as a positive control. Mitochondrial function and cell death were evaluated at 24 or 48 hours post H/H insult with the MTS and LDH analyses (see below).
The MTS assay is a colorimetric assay that measures the mitochondrial function in metabolically active cells. This measurement indirectly reflects cell viability. […] The absorbance at 490 nm was recorded using a Bio-Rad 96 well plate reader. […]
Data set [11] deals with enriched neuronal cultures (cerebellar tissue). The data set can be described thus: In vitro models of excitotoxicity (H/H, glutamate, staurosporine, veratridine), MTT assay.
Description: Enriched neuronal cultures were prepared from 15-day-old Sprague-Dawley rat embryos. Using aseptic techniques, the rat embryos were removed from the uterus and placed in sterile neuronal culture medium. Using a dissecting microscope, the brain tissue was removed from each embryo, with care taken to discard the meninges and blood vessels. The cerebellum was separated by gross dissection under the microscope, and only cerebellar tissue was used for the culture. Cells were dissociated by trituration of the tissue and were plated at a density of 5×10^5 cells/well onto 48-well culture plates precoated with poly(L-lysine). Cultures were maintained in a medium containing equal parts of Eagle's basal medium (without glutamine) and Ham's F-12k medium supplemented with 10% heat-inactivated horse serum, 10% fetal bovine serum, 600 μg/ml glucose, 100 μg/ml glutamine, 50 U/ml penicillin, and 50 μg/ml streptomycin. After 48 h, 10 μM cytosine arabinoside was added to inhibit non-neuronal cell division. Cells were used in experiments after 7 days in culture.
Four in vitro models of excitotoxicity were studied. Cells were either exposed to H/H conditions for 3 hrs or treated for 45 min with one of glutamate (100 μM), staurosporine (1 μM) or veratridine (10 μM). All cells were co-treated with or without PAN-811 (10 μM) in Locke's solution. At the conclusion of the respective excitotoxic exposures, the condition medium (original) was replaced. H/H was induced by incubating the cells in a humidified airtight chamber saturated with 95% nitrogen, 5% CO2 gas for 3 hrs in Locke's solution without added glucose.
Twenty-four hours after the excitotoxic insult, cell viability assessments were made. Cell damage was quantitatively assessed using a tetrazolium salt colorimetric assay with 3-(4,5-dimethylthiazol-2-yl)-2,5-diphenyltetrazolium (MTT; Sigma Chemical Co., St. Louis, Mo.). Briefly, the dye was added to each well (final concentration, 1.5 mg/ml), cells were incubated with MTT-acidified isopropanol (0.1 N HCl in isopropanol), and the absorbance intensity (540 nm) of each sample was measured in a 96-well plate reader. Values are expressed relative to vehicle-treated control cells that were maintained on each plate, and the percentage change in cell viability was calculated.
Data set [12] relates to primary neurons from cortex and striatum. The data set can be described thus: Neurotoxicity of Aβ peptides (morphology, LDH, MTS). It is filed as cell-based, rat. As to conditions: for increase in LDH of the culture medium: 10 uM peptide, 16 day post-insult, neurons 12-16 d.i.v., 0% AO.
Setting [13] is: 2 μM, 100% +AO, 1 day post-insult.
The mark [14] stands for this setting: 10 uM, 1-6 days post-insult, older neurons (21-23 d.i.v.), 90% AO.

As to `NC(=S)N/N=C/c1ncccc1N` [PAN-811, 3-aminopyridine-2-carboxaldehyde thiosemicarbazone], in data set [1], the maximal toxicity is listed as 7.8%. Moreover, the “Infarct volume, range” value in [2] (1 mg/kg IV 10 minutes prior to MCAO) is 42.36-387.08 mm^3. For the same compound, the “Infarct Volume (individual rat)” value in data set [2] (1 mg/kg IV 10 minutes prior to MCAO, 24 hours after surgery) is 42.36 mm^3 and 126.42 mm^3 and 143.74 mm^3 and 158.83 mm^3 and 196.18 mm^3 and 200.08 mm^3 and 218.54 mm^3 and 221.46 mm^3 and 224.32 mm^3 and 255.36 mm^3 and 267.40 mm^3 and 344.47 mm^3 and 375.59 mm^3 and 387.08 mm^3. Also, the “Infarct Volume, mean” value in data set [2] (1 mg/kg IV 10 minutes prior to MCAO, 24 hours after surgery, n 14) was determined as 225.85 mm^3. For the same compound, in data set [2] (of the 7 rats that died (4 severe strokes, 3 with SAH), 6 were vehicle rats), the rats that died stood at 1. Further, in [2] (rat, in vivo), the tolerability entry was “well tolerated and relatively non-toxic”. The neuroprotective capacity entry in the data set on primary cortical neurons [3] (PAN-811 1-10 μM) is on record as “good neuroprotective capacity; also recorded: significant neuroprotection”. The “protection from Aβ25-35 induced neuronal cell death, 3-week old neurons” value in [4] (2 μM post-treatment (2 or 3h later), 10 μM Aβ25-35, 90% AO) is on record as “well protected; also recorded: fully block”. For the same compound, in data set [4] (setting [13]), the “MTS reading, 7-week-old mixed neurons” value is listed as “slight reduction in the MTS reading” and the “morphology of neurons, 7-week-old mixed neurons” value is given as “well preserved the morphology of neurons”. Moreover, the “protection from neuronal cell death (morphology monitoring)” value in data set [4] (2μM, Aβ insult) is “efficient protection from neuronal cell death”. In addition, in data set [4] (2 μM, at the same time as or 3 hours after Aβ1-42 or Aβ25-35 insult, 12-16 days, 0% AO), the “neuronal and neurite morphologies, younger neurons” value is “well preserved neuronal and neurite morphologies”. Besides, the “Aβ1-42 or Aβ25-35 induced neurotoxicity, younger neurons” value in data set [4] (2 μM, neurons 12-16 d.i.v. (2-week old), 0% AO, 10 uM Aβ) is listed as “fully block; also recorded: well protected”. Further, in data set [4] (2 μM, same time or 2-3 hours post Aβ1-42 or Aβ25-35, day 16, 0% AO), the “LDH reading, younger neurons” value is given as “down to a level lower than untreated (control) group”. For the same compound, the “neuronal and neurite morphologies, older neurons” value in [4] (0.25-2 uM, same time as or 2-3 hour after Aβ insult, 90% AO, 1-6 days) is “well preserved neuronal and neurite morphologies”. In data set [4] (0.25 to 1 μM, 3 hours after initiation of Aβ25-35 insult, 90% AO), the “MTS reading, older neurons” value is “up to control level”. In addition, the “Aβ1-42 and Aβ25-35 induced neurotoxicity, older neurons” value in data set [4] (0.25 to 2 μM, neurons 21-23 d.i.v., 90% AO) was “fully blocked”. In addition, the “lowest dose giving full protection” value in data set [4] (administered 3 hours after initiation of Aβ25-35 insult) is 0.25 µM. The neuroprotective capacity entry in the data set on primary cortical neurons [5] is “good neuroprotective capacity”. In addition, in the data set on cortical neurons [6], the “protection from neuronal cell death (morphology)” value was “efficient protection from neuronal cell death”. Further, the “neuronal cell death after hypoxia” value in the data set on cortical neurons [6] (21 μM, 48 h prior, during 24-h hypoxia and 48 h after) was “completely blocked the cell death”. The “extreme H/H-induced neuronal cell death” value with cortical neurons [7] (100 μM) was “only partially blocked”. Also, the “protection from neuronal cell death” value with cortical neurons [7] (≦50 μM, extreme H/H) was “did not protect neuronal cell death”. Besides, the solubility result in [8] is “better solubility in PEG-300/EtOH comparing to EtOH alone”. For the same compound, the “reduction of basal level of ROS generation” value in the data set with primary cortical neurons [9] was around 50%. Besides, the “reduction of H2O2-induced ROS generation” value in the data set on primary cortical neurons [9] (1 h, then 300 μM H2O2 for 2 h) is around 30%. Also, the “protection from mild H/H induced neurotoxicity” value with cortical neurons [10] (2 μM) was “completely protected”. In addition, the “protection from H/H-induced mitochondria dysfunction and neuronal cell death” value in the data set with cortical neurons [10] (5 μM, 24 h before and during 6-h H/H, MTS and LDH 17 h post insult) was “completely protected”. The “protection (Comments)” value with cortical neurons [10] (5 μM) was 5 μM: 100% protected. In addition, in the data set on cortical neurons [10] (10 μM), the “protection (Comments)” value was 10 μM: 100% protected. Further, in data set [11] (10 μM PAN-811), the “protection from damage by 3-hour hypoxia/hypoglycemia” value is on record as 92%. In data set [11] (10 μM PAN-811, 45 min insult), the “protection from 1 μM staurosporine” value was around 47%, the “protection from 10 μM veratridine” value is on record as around 39% and the “protection from 100 μM glutamate” value is around 75%.

On to Vitamin E [reference compound], for which the neuroprotective capacity entry in the data set with primary cortical neurons [3] (known neuroprotectants) is reported as “minimal neuroprotective capacity”.

For “Aβ1-42: amyloid beta peptide (Aβ1-42) from Sigma, used as neurotoxic insult”, the “increase in LDH of the culture medium” value in data set [12] was around 40%.

For `O=C(O)CCCC[C@@H]1CCSS1` (racemic) [lipoic acid, reference compound], the neuroprotective capacity result with primary cortical neurons [3] (known neuroprotectants) is “minimal neuroprotective capacity”.

With “Aβ25-35: amyloid beta peptide fragment from Oncogene or Bachem, used as neurotoxic insult (GSNKGAIIGLM; Amyloid-beta protein 42; UniProt P05067 696-706, looked up, fragment)”, the “increase in LDH of the culture medium” value in [12] is given as around 40%. Besides, in [12] (setting [14]), the “decrease in MTS reading” value was 7.5% and the “increase in medium LDH reading” value is 12-18%. In addition, in data set [12] (100% AO), the “concentration able to induce neurotoxicity” value was 80 µM.

Regarding `C[C@]12N[C@H](Cc3ccccc31)c1ccccc12` [MK801, reference compound], the “protection from neuronal cell death (morphology)” value in the data set with cortical neurons [6] was “efficient protection from neuronal cell death”.
